Data as given in the supplement of paper PMC10307832.

Key:
Experiment in all cases: relative viability (nuclei count vs DMSO), 5 days (fraction); higher = more cells survive
[1] = compound: CC(C)CCN1c2nc(Nc3cc(F)c(O)c(F)c3)ncc2N(C)C(=O)C1C [BI-D1870] + COc1cccc2cc(-c3nc([C@H]4CC[C@H](C(=O)O)CC4)n4ncnc(N)c34)[nH]c12 [OSI-027] (partner 0.5 µM)
Method in brief: (§1)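 For relative viability, nuclei counts in treated wells were divided by those in vehicle wells. Lung cancer cell lines had been pin-tool dosed in 1536-well plates the day after seeding and cultured for 5 days, then fixed and stained in one step (final 0.05% Triton X-100, 1% formaldehyde, 1 ug/ml Hoechst) and imaged at 4×. Doses were one drug alone or a fixed anchor-drug dose plus five library-drug doses (not always all listed) in √10 steps, and values are duplicate-plate medians.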

[2] = compound: O=c1ncccn1[C@@H]1O[C@H](CO)[C@@H](O)[C@H]1O [Zebularine] + CC1(C)CCC(c2ccc(Cl)cc2)=C(CN2CCN(c3ccc(C(=O)NS(=O)(=O)c4ccc(N[C@H](CCN5CCOCC5)CSc5ccccc5)c(S(=O)(=O)C(F)(F)F)c4)cc3)CC2)C1 [Navitoclax] (partner 0.5 µM)
Method in brief: as §1

[3] = compound: O=c1ncccn1[C@@H]1O[C@H](CO)[C@@H](O)[C@H]1O [Zebularine] + COc1cccc2cc(-c3nc([C@H]4CC[C@H](C(=O)O)CC4)n4ncnc(N)c34)[nH]c12 [OSI-027] (partner 0.5 µM)
Method in brief: as §1

[4] = compound: O=c1ncccn1[C@@H]1O[C@H](CO)[C@@H](O)[C@H]1O [Zebularine] + CS(=O)(=O)N1CCN(Cc2cc3nc(-c4cccc5[nH]ncc45)nc(N4CCOCC4)c3s2)CC1 [Pictilisib] (partner 1 µM)
Method in brief: as §1

## UMC-11
[1]; first compound 0.04 µM
  relative viability: 0.519
[1]; first compound 0.1265 µM
  relative viability: 0.48
[1]; first compound 0.4 µM
  relative viability: 0.479
[1]; first compound 1.265 µM
  relative viability: 0.406
[1]; first compound 4 µM
  relative viability: 0.16
[2]; first compound 1 µM
  relative viability: 0.316
[2]; first compound 3.162 µM
  relative viability: 0.328
[2]; first compound 10 µM
  relative viability: 0.265
[2]; first compound 31.62 µM
  relative viability: 0.344
[2]; first compound 100 µM
  relative viability: 0.238
[3]; first compound 1 µM
  relative viability: 0.544
[3]; first compound 3.162 µM
  relative viability: 0.478
[3]; first compound 10 µM
  relative viability: 0.297
[3]; first compound 31.62 µM
  relative viability: 0.473
[3]; first compound 100 µM
  relative viability: 0.407
[4]; first compound 1 µM
  relative viability: 0.89
[4]; first compound 3.162 µM
  relative viability: 0.451
[4]; first compound 10 µM
  relative viability: 0.467
[4]; first compound 31.62 µM
  relative viability: 0.653
[4]; first compound 100 µM
  relative viability: 0.35
